The source of these data is patent US4510139A, “Substituted aminobenzamides and their use as agents which inhibit lipoxygenase activity” (Sterling Drug Inc., priority 1984, dated 1985).

Molecules are shown by their SMILES. Like-named read-outs stand apart in the source and are kept apart here. Bounds are passed on as bounds.

Experiment [1] deals with SRS-A component of immunologically induced broncho-constriction. Kind of experiment: Effect on the SRS-A component of immunologically induced broncho-constriction in guinea pigs. Format: in vivo. The following applies: guinea pig, intravenous. Here is the method:
The test was carried out according to the following procedure:
Two weeks after immunization with egg albumin, guinea pigs are prepared for bronchoconstriction determination. One hour prior to antigen challenge, each animal is dosed orally with indomethacin and chlorpheniramine. Animals are anesthetized with sodium pentobarbital, the trachea cannulated and the animal artifically respired. Arachidonic acid is administered intravenously prior to antigen challenge. The resulting bronchoconstriction is recorded by the standard lung overflow procedure and the peak increase in intratracheal pressure (mm Hg) over a 10 minute observation period is recorded. Compounds are evaluated for their ability to prevent the increased intratracheal pressure in an experimental group of animals as compared to the medicated (indomethacin+chlorpheniramine+arachidonic acid) control group. The results are expressed in terms of percent inhibition or as ED50 values (effective dose in 50% of the animals).

The target in another experiment is T1, lipoxygenase (Rattus norvegicus, UniProt P12527).
T1 construct: microsomal fraction containing lipoxygenase and cyclooxygenase; endogenous in cells; host or cells: RBL-1 (rat basophilic leukemia) cells, homogenate / microsomal fraction
T1 sequence (P12527 1-673): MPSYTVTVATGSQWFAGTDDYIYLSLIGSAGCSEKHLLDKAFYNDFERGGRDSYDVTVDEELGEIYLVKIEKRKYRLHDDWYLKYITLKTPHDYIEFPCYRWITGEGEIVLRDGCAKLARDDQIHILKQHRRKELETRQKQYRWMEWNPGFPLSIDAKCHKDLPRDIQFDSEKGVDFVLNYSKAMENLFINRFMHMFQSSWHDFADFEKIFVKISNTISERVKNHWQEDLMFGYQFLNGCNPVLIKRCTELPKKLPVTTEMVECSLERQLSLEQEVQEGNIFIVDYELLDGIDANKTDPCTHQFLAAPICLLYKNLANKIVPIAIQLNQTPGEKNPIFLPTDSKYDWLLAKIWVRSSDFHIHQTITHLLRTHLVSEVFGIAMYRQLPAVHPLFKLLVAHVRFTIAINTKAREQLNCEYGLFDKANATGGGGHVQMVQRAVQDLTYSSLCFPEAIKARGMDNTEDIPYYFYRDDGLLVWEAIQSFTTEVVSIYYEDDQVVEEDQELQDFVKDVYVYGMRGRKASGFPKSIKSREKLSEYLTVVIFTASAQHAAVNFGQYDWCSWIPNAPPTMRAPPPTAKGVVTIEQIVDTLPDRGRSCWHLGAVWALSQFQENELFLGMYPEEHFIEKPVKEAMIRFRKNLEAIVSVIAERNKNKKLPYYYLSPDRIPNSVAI
Kind of experiment: Inhibition of lipoxygenase derived from rat basophilic leukemia (RBL-1) cells, products L1 (5,12-di-HETE) and L2 (5-HETE). Format: biochemical. Here is the method: (§1) The primary screening test used is a determination of the inhibition of lipoxygenase and cyclooxygenase derived from rat basophilic leukemia (RBL-1) cells. The test was carried out according to the following procedure:
(§2) Single cell suspensions of RBL-1 cells are homogenized to obtain the microsomal fraction containing lipoxygenase and cyclooxygenase. Test compounds are added to the enzyme-containing homogenate for a 5 min preincubation period at 37° C. prior to the addition of ^14 C-arachidonic acid substrate. Following incubation at 37° C. for 15 min, the reaction is stopped by the addition of 2M formic acid and the enzyme-substrate products are extracted into chloroform. An aliquot of the extract is evaporated to dryness, reconstituted in ether to 1/10 original volume, spotted in thin layer chromatography plates and chromatographed. The peak areas of radioactivity representing the products are located by scanning the plates. The quantity of products formed is estimated by measuring the height of the radioactivity peaks observed on the chromatographic scans. Alternatively, the areas of radioactivity are scraped from the plate and the ^14 C quantitated by scintillation counting.

Another experiment concerns the target T2, cyclooxygenase (Rattus norvegicus, UniProt Q63921).
T2 construct: microsomal fraction containing lipoxygenase and cyclooxygenase; endogenous in cells; host or cells: RBL-1 (rat basophilic leukemia) cells, homogenate / microsomal fraction
T2 sequence (Q63921 27-602): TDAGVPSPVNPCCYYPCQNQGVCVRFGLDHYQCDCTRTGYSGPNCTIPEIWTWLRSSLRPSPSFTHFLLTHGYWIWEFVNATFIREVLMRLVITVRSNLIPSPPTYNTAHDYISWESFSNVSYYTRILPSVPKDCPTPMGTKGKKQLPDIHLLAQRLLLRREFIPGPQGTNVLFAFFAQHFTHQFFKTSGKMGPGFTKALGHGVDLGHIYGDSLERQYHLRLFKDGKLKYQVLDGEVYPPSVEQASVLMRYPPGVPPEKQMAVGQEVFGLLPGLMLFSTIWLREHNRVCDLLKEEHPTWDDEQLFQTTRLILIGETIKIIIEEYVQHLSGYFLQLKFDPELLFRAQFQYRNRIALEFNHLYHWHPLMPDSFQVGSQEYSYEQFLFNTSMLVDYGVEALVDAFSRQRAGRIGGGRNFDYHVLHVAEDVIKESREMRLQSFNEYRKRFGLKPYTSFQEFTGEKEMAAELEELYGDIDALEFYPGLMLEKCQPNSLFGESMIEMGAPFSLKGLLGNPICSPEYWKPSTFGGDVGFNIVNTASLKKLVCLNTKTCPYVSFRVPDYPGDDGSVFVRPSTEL
Kind of experiment: Inhibition of cyclooxygenase derived from rat basophilic leukemia (RBL-1) cells, product C1 (PGD2). The experiment is classed as biochemical. The following applies: for inhibition at 1 µM: dose of 1 μM, read-out: % Inhibition of cyclooxygenase (C1) formation. The protocol:
as §1, §2

Setting [2] is: read-out: % Inhibition of lipoxygenase (L1) formation.
The mark [3] stands for this setting: read-out: % Inhibition of lipoxygenase (L2) formation.

What is called IC50 is the midpoint of a concentration-inhibition curve. Read a high IC50 as weaker potency in that assay. As a reminder, the inhibition is the drop in the measured response relative to a control, in per cent. Regarding `O=C(c1ccccc1Nc1ccc(O)cc1)N1CCCCC1` [Example 1(d), 1-[2-(4-Hydroxyphenylamino)benzoyl]piperidine], the “percent inhibition of increased intratracheal pressure (bronchoconstriction)” value in experiment [1] (highest soluble dose (0.1 mg/kg)) stood at 48%. In addition, the half-inhibitory concentration (IC50) against lipoxygenase (IC50 L1, L1 = 5,12-di-HETE) is 3.5 µM; against lipoxygenase (IC50 L2, L2 = 5-HETE), 0.6 µM; against cyclooxygenase, > 100 µM. Besides, the inhibition at 1 µM amounted to 19% at lipoxygenase (setting [2]), 64% on lipoxygenase (setting [3]) and 0% on cyclooxygenase.
One may read the ED50 as the dose at which the effect has come halfway, by size or by number of responders. As to `O=C(NCc1ccccc1)c1ccccc1Nc1ccc(O)cc1` [Example 11(b), 2-(4-Hydroxyphenylamino)-N-benzylbenzamide], in experiment [1] (Cavia porcellus, read-out: ED50 (effective dose in 50% of the animals)), the ED50 worked out at 0.61 mg/kg. For the same compound, the IC50 at lipoxygenase (IC50 L1, L1 = 5,12-di-HETE) was 0.07 µM; on lipoxygenase (IC50 L2, L2 = 5-HETE) it was 0.04 µM; against cyclooxygenase it was > 1 µM. Moreover, the results for the inhibition at 1 µM on lipoxygenase (setting [2]), at lipoxygenase (setting [3]) and on cyclooxygenase were 87%, 96% and 0%, respectively.
